Laboratory results from US4079141A, “Azabicycloalkanes” (priority 1976, dated 1978).
Read-outs that look alike come from different tables or passages of the source.

Experiments:
[1] = tested on: 2-phenyl-1,4-quinone induced writhing; assay: 2-phenyl-1,4-quinone induced writhing assay in mice (analgesia); assay type: in vivo; details: Mus musculus, sc, read-out: ED50 (inhibition of writhing)
From the text: Compounds of the invention are useful as analgesic agents due to their ability to alleviate pain in mammals. […] Exptl. Biol. Med., 95, 729 (1957)].

[2] = tested on: mania (increased motor activity) produced in mice by morphine; assay: Morphine antagonist test: inhibition of the characteristic mania (increased motor activity) produced in mice by morphine; assay type: in vivo; details: for % Inhibition (percent of pairs in which the mania is inhibited): subcutaneous, concurrently with 25 mg/kg morphine sulfate, 10 pairs of mice
Method: A sample of 25 mg/kg of body weight of morphine sulfate and the compound of the invention to be tested are concurrently administered subcutaneously to 10 pairs of mice. The mice are then observed for inhibition of the characteristic mania (increased motor activity) normally produced in mice by morphine. Results are outlined in Table II and expressed as percent of pairs in which the mania is inhibited at a given dose level.

[3] = 0.5 h, mice, subcutaneous, drug administration time 30 minutes
[4] = 0.25 h, mice, subcutaneous, drug administration time 15 minutes

SMILES | ED50 [1, 3] | ED50 [1, 4] | % Inhibition (percent of pairs in which the mania is inhibited) ([2]; dose 50 mg/kg) | other results
CC(=O)Oc1cccc(C23CCC(C2)N(CCc2ccccc2)CC3)c1 (stereo not shown) [5-(3-acetoxyphenyl)-2-phenethyl-2-azabicyclo[3.2.1]octane.HBr] | 6.1 mg/kg |  |  | % Inhibition (percent of pairs in which the mania is inhibited) ([2]; dose 10 mg/kg): 70%
CC(C)=CCN1CCC2(C)c3cc(O)ccc3CC1C2C (stereo not shown) [pentazocine, reference compound] | 4.8 mg/kg | 1.5 mg/kg |  | ED50 ([2]; Mus musculus, sc, mice, concurrently with morphine sulfate, for comparison, read-out: dose exhibiting a 50% inhibition (of morphine mania)): > 50 mg/kg
COc1cccc(C23CCC(C2)N(C)CC3)c1 (stereo not shown) [5-(3-methoxyphenyl)-2-methyl-2-azabicyclo[3.2.1]octane.HBr] | 7.9 mg/kg |  | 50% | 
CCCCCN1CCC2(c3cccc(OC)c3)CCC1C2 (stereo not shown) [2-n-amyl-5-(3-methoxyphenyl)-2-azabicyclo[3.2.1]octane.HBr] | 5 mg/kg |  |  | % Inhibition (percent of pairs in which the mania is inhibited) ([2]; dose 30 mg/kg): 100%
CCCCN1CCC2(c3cccc(OC)c3)CCC1C2 (stereo not shown) [2-n-butyl-5-(3-methoxyphenyl)-2-azabicyclo[3.2.1]octane.HBr] | 4.6 mg/kg |  |  | % Inhibition (percent of pairs in which the mania is inhibited) ([2]; dose 25 mg/kg): 100%
Oc1cccc(C23CCC(C2)N(Cc2ccco2)CC3)c1 (stereo not shown) [2-(2-furylmethyl)-5-(3-hydroxyphenyl)-2-azabicyclo[3.2.1]octane.HBr] |  | 22 mg/kg |  | % Inhibition (percent of pairs in which the mania is inhibited) ([2]; dose 25 mg/kg): 100%
O=C(CCCN1CCC2(c3cccc(O)c3)CCC1C2)c1ccc(F)cc1 (stereo not shown) [2-[3-(4-fluorobenzoyl)propyl]-5-(3-hydroxyphenyl)-2-azabicyclo[3.2.1]octane] | 0.35 mg/kg |  |  | 
COc1cccc(C23CCC(C2)N(CCCC(=O)c2ccc(F)cc2)CC3)c1 (stereo not shown) [2-[3-(4-fluorobenzoyl)propyl]-5-(3-methoxyphenyl)-2-azabicyclo[3.2.1]octane.HBr] |  |  |  | ED50 ([1]; 1 h, mice, subcutaneous, drug administration time 60 minutes): 0.7 mg/kg; % Inhibition (percent of pairs in which the mania is inhibited) ([2]; dose 10 mg/kg): 100%
CN1CC[C@]23c4c5ccc(O)c4O[C@H]2[C@@H](O)C=C[C@H]3[C@H]1C5 [morphine, reference compound] |  |  |  | ED50 ([1]; 0.5 h): 0.47 mg/kg
CCCCCN1CCC2(c3cccc(O)c3)CCC1C2 (stereo not shown) [2-n-amyl-5-(3-hydroxyphenyl)-2-azabicyclo[3.2.1]octane.HBr] | 11 mg/kg |  |  | % Inhibition (percent of pairs in which the mania is inhibited) ([2]; dose 3 mg/kg): 50%; % Inhibition (percent of pairs in which the mania is inhibited) ([2]; dose 25 mg/kg): 100%
CCCN1CCC2(c3cccc(O)c3)CCC1C2 (stereo not shown) [5-(3-hydroxyphenyl)-2-n-propyl-2-azabicyclo[3.2.1]octane.HBr] |  | 8.9 mg/kg | 100% | 
Oc1cccc(C23CCC(C2)N(CC2CC2)CC3)c1 (stereo not shown) [2-cyclopropylmethyl-5-(3-hydroxyphenyl)-2-azabicyclo[3.2.1]octane.HBr] | 6 mg/kg |  |  | % Inhibition (percent of pairs in which the mania is inhibited) ([2]; dose 25 mg/kg): 100%
CCCN1CCC2(c3cccc(OC)c3)CCC1C2 (stereo not shown) [5-(3-methoxyphenyl)-2-n-propyl-2-azabicyclo[3.2.1]octane.HBr] |  | 7.4 mg/kg | 100% | % Inhibition (percent of pairs in which the mania is inhibited) ([2]; dose 10 mg/kg): 50%
CC(=O)Oc1cccc(C23CCC(C2)N(C)CC3)c1 (stereo not shown) [5-(3-acetoxyphenyl)-2-methyl-2-azabicyclo[3.2.1]octane.HBr] |  |  | 100% | 
Oc1cccc(C23CCC(C2)N(CCc2ccccc2)CC3)c1 (stereo not shown) [5-(3-hydroxyphenyl)-2-phenethyl-2-azabicyclo[3.2.1]octane.HBr] |  | 0.7 mg/kg | 100% | % Inhibition (percent of pairs in which the mania is inhibited) ([2]; dose 1 mg/kg): 50%
CN1CCC2(c3cccc(O)c3)CCC1C2 (stereo not shown) [5-(3-hydroxyphenyl)-2-methyl-2-azabicyclo[3.2.1]octane.HBr] | 9.5 mg/kg |  | 80% | 
COc1cccc(C23CCC(C2)N(CCc2ccccc2)CC3)c1 (stereo not shown) [5-(3-methoxyphenyl)-2-phenethyl-2-azabicyclo[3.2.1]octane.HBr] | 5.9 mg/kg |  |  | 
O=C(CCCN1CCC2(c3cccc(O)c3)CCC1C2)c1ccc(F)cc1 (stereo not shown) [2-[3-(4-fluorobenzoyl)propyl]-5-(3-hydroxyphenyl)-2-azabicyclo[3.2.1]octane.HBr] |  |  |  | % Inhibition (percent of pairs in which the mania is inhibited) ([2]; dose 10 mg/kg): 100%
CCCCN1CCC2(c3cccc(O)c3)CCC1C2 (stereo not shown) [2-n-butyl-5-(3-hydroxyphenyl)-2-azabicyclo[3.2.1]octane.HBr] |  | 9 mg/kg |  | % Inhibition (percent of pairs in which the mania is inhibited) ([2]; dose 25 mg/kg): 100%
